Measured values taken from publication PMC7072329, “Discovery of Kynurenines Containing Oligopeptides as Potent Opioid Receptor Agonists” (Biomolecules, 2020).
Where a SMILES comes first, the peptide text is derived from it. [ ]: non-standard residue; d: D form. Kyn = Nc1ccccc1C(=O)C[C@H](N)C(=O)O

System: G-protein
Test: functional [35S]GTPγS binding, guinea pig brain membrane homogenates
Assay type: biochemical
Settings: ligand alone
Experimental: Rats and guinea pigs were decapitated, and their brains were quickly removed. The brains were used for membrane preparation following the procedure reported by Benyhe for binding and [^35S]GTPγS binding experiments, in agreement with the protocol of Zádor et al..
Homogenization of brains was performed in 30 volumes (v/w) of ice-cold 50 mM Tris-HCl pH 7.4 buffer with a Teflon-glass Braun homogenizer at 1500 rpm. The centrifuge was settled at 18,000 rpm for 20 min at 4 °C, the resulting supernatant discarded, and the pellet taken up in the original volume of Tris-HCl buffer. Incubation of homogenate at 37 °C for 30 min was performed in a shaking water-bath. Five volumes of 50 mM Tris-HCl pH 7.4 buffer were used to suspend the final pellet at −80 °C. For the [^35S]GTPγS binding experiments, the brains were homogenized with a Dounce in 5 volumes (v/w) of ice-cold TEM (Tris-HCl, EGTA, MgCl2) at −80 °C. The protein content of the membrane preparation was determined by the method of Bradford, BSA being used as a standard.
The functional [^35S]GTPγS binding experiments were performed as previously described. Briefly the membrane homogenates were incubated at 30 °C for 60 min in Tris-EGTA buffer (pH 7.4) composed of 50 mM Tris-HCl, 1 mM EGTA, 3 mM MgCl2, 100 mM NaCl, containing 20 MBq/0.05 cm^3 [^35S]GTPγS (0.05 nM) and increasing concentrations (10^−10 to 10^−5 M) of ligands. The experiments were performed in the presence of excess GDP (30 μM) in a final volume of 1 mL. Total binding was measured in the absence of test compounds, non-specific binding was determined in the presence of 10 μM unlabeled GTPγS. The reaction was terminated by rapid filtration under vacuum and washed three times with 5 mL ice-cold 50 mM Tris-HCl (pH 7.4) buffer through Whatman GF/B glass fibers. The radioactivity of the filters was detected in an UltimaGold^TM MV aqueous scintillation cocktail with a Packard Tricarb 2300TR liquid scintillation counter.
Experimental data are presented as means ± S.E.M. Sigmoid dose-response curves were fitted with GraphPad Prism 5.0 (GraphPad Prism Software Inc., San Diego, CA, USA). An unpaired t-test with two-tailed p value was performed to determine the significance level. In the competition binding assays, the ‘One site competition’ fitting was used to establish the equilibrium binding affinity (Ki value).
Figure S3. The effect of novel oligopeptides on G-protein activity in [35S]GTPγS binding assays in the absence or presence of the selective MOR antagonist cyprodime (Cyp) and the selective DOR antagonist naltrindole (NTI) in rat brain membrane homogenates (Figure A) and the selective KOR antagonist norbinaltorphine (nor-BNI) in guinea pig brain membrane homogenates (Figure B). […]

C[C@@H](NC(=O)[C@@H](N)Cc1ccc(O)cc1)C(=O)NCC(=O)N[C@@H](Cc1ccccc1)C(=O)N[C@@H](CC(=O)c1ccccc1N)C(N)=O [Peptide K6] (H-Y[dA]GF[Kyn]-NH2)
Emax + S.E.M., Ligand: 139.8 ± 2.3%
